Results: patent US10376520B2, “Methods for the treatment of cardiovascular disorders” (Galapagos NV, priority 2015, dated 2019)

Tested on: RA patients
Assay: [HDL] determination, Study 2 (RA patients, monotherapy)
Type: in vivo, human
Conditions: for [HDL] Mean percentage CFB - 12 weeks results / [HDL] Median percentage CFB - 12 weeks results: 50 mg q.d.
From the text: Randomized, double-blind, placebo-controlled, multicenter, phase IIb dose finding study of Compound 1 (dosed as a [Compound 1:HCl:3H2O]) administered for 24 weeks as monotherapy to subjects with moderately to severely active rheumatoid arthritis who have an inadequate response to methotrexate alone
Double-blind, placebo-controlled, monotherapy study in subjects with moderately to severely active RA who have an inadequate response to methotrexate (MTX) (oral or parenteral).
280 subjects randomized to one of 3 doses of Compound 1 (dosed as a [Compound 1:HCl:3H2O]) or to placebo, given once daily (q.d.).
Twelve weeks of treatment with Compound 1 (dosed as a [Compound 1:HCl:3H2O]) at 50 mg, 100 mg, or 200 mg q.d.; or placebo. At Week 12, all subjects on placebo and the subjects on the 50 mg dose who have not achieved 20% improvement in swollen joint count (SJC66) and tender joint count (TJC68) will be assigned to 100 mg q.d. in a blinded fashion and will continue treatment until Week 24. Subjects in the other groups will maintain their randomized treatment until Week 24.
This assay relies on a homogeneous enzymatic colorimetric test. In the presence of magnesium ions, dextran sulfate selectively forms water-soluble complexes with LDL, VLDL and chylomicrons which are resistant to PEG-modified enzymes.
The cholesterol concentration of [HDL]-cholesterol is determined enzymatically by cholesterol esterase and cholesterol oxidase coupled with PEG to the amino groups (approx. 40%).
In the presence of peroxidase, the hydrogen peroxide generated reacts with 4-amino-antipyrine and Sodium N-(2-hydroxy-3-sulfopropyl)-3,5-dimethoxyaniline (HSDA) to form a purple-blue dye. The color intensity of this dye is directly proportional to the cholesterol concentration and is measured photometrically.
Human serum and plasma samples [HDL] determination was done on a Roche/Hitachi Cobas c 701/702 system which automatically calculate the analyte concentration of each sample. Samples containing precipitates are centrifuged before performing the assay.

[1] = 50 mg q.d. non responders switching to 100 mg q.d. at week 12 (N = 15), week 1
[2] = 50 mg q.d. non responders switching to 100 mg q.d. at week 12 (N = 15), week 2
[3] = 50 mg q.d. non responders switching to 100 mg q.d. at week 12 (N = 15), week 4
[4] = 50 mg q.d. non responders switching to 100 mg q.d. at week 12 (N = 15), week 8
[5] = 50 mg q.d. non responders switching to 100 mg q.d. at week 12 (N = 15), week 12
[6] = 50 mg q.d. non responders switching to 100 mg q.d. at week 12 (N = 15), week 16
[7] = 50 mg q.d. non responders switching to 100 mg q.d. at week 12 (N = 15), week 20
[8] = 50 mg q.d. non responders switching to 100 mg q.d. at week 12 (N = 15), week 24
[9] = 50 mg q.d. non responders switching to 100 mg q.d. at week 12, week 1
[10] = 50 mg q.d. non responders switching to 100 mg q.d. at week 12, week 2
[11] = 50 mg q.d. non responders switching to 100 mg q.d. at week 12, week 4
[12] = 50 mg q.d. responders (N = 57), week 1
[13] = 50 mg q.d. responders (N = 57), week 2
[14] = 50 mg q.d. responders (N = 57), week 4
[15] = 50 mg q.d. responders (N = 57), week 8
[16] = 50 mg q.d. responders (N = 57), week 12
[17] = 50 mg q.d. responders (N = 57), week 16
[18] = 50 mg q.d. responders (N = 57), week 20
[19] = 50 mg q.d. responders (N = 57), week 24

For `O=C(Nc1nc2cccc(-c3ccc(CN4CCS(=O)(=O)CC4)cc3)n2n1)C1CC1` [Compound 1, cyclopropanecarboxylic acid {5-[4-(1,1-dioxo-thiomorpholin-4-ylmethyl)-phenyl]-[1,2,4]triazolo[1,5-a]pyridin-2yl}-amide], the “[HDL] Mean CFB” value (50 mg q.d. (N = 72), week 1) was 0.033 mmol/L, the “[HDL] Median CFB” value (50 mg q.d. (N = 72), week 1) was 0.050 mmol/L and the “[HDL] Mean CFB” value (50 mg q.d. (N = 72), week 2) was 0.055 mmol/L. The “[HDL] Median CFB” value (50 mg q.d. (N = 72), week 2) was 0.000 mmol/L, the “[HDL] Mean CFB” value (50 mg q.d. (N = 72), week 4) was 0.102 mmol/L and the “[HDL] Median CFB” value (50 mg q.d. (N = 72), week 4) was 0.100 mmol/L. The “[HDL] Mean CFB” value (50 mg q.d. (N = 72), week 8) was 0.120 mmol/L, the “[HDL] Median CFB” value (50 mg q.d. (N = 72), week 8) was 0.110 mmol/L and the “[HDL] Mean CFB” value (50 mg q.d. (N = 72), week 12) was 0.078 mmol/L. The “[HDL] Median CFB” value (50 mg q.d. (N = 72), week 12) was 0.065 mmol/L, the “[HDL] Mean CFB - 24 weeks results” value [1] was 0.08 mmol/L and the “[HDL] Median CFB - 24 weeks results” value [1] was 0.05 mmol/L. For the same compound, the “[HDL] Mean CFB - 24 weeks results” value [2] was 0.05 mmol/L, the “[HDL] Median CFB - 24 weeks results” value [2] was 0.04 mmol/L and the “[HDL] Mean CFB - 24 weeks results” value [3] was 0.14 mmol/L. The “[HDL] Median CFB - 24 weeks results” value [3] was 0.11 mmol/L, the “[HDL] Mean CFB - 24 weeks results” value [4] was 0.09 mmol/L and the “[HDL] Median CFB - 24 weeks results” value [4] was 0.10 mmol/L. For the same compound, the “[HDL] Mean CFB - 24 weeks results” value [5] was 0.15 mmol/L, the “[HDL] Median CFB - 24 weeks results” value [5] was 0.14 mmol/L and the “[HDL] Mean CFB - 24 weeks results” value [6] was 0.20 mmol/L. The “[HDL] Median CFB - 24 weeks results” value [6] was 0.21 mmol/L, the “[HDL] Mean CFB - 24 weeks results” value [7] was 0.21 mmol/L and the “[HDL] Median CFB - 24 weeks results” value [7] was 0.25 mmol/L. For the same compound, the “[HDL] Mean CFB - 24 weeks results” value [8] was 0.30 mmol/L, the “[HDL] Median CFB - 24 weeks results” value [8] was 0.31 mmol/L and the “[HDL] Mean percentage CFB - 24 weeks results” value [9] was 5.25%. The “[HDL] Median percentage CFB - 24 weeks results” value [9] was 3.68%, the “[HDL] Mean percentage CFB - 24 weeks results” value [10] was 4.69% and the “[HDL] Median percentage CFB - 24 weeks results” value [10] was 4.17%. For the same compound, the “[HDL] Mean percentage CFB - 24 weeks results” value [11] was 10.56%, the “[HDL] Median percentage CFB - 24 weeks results” value [11] was 10.14% and the “[HDL] Mean percentage CFB - 24 weeks results” value (50 mg q.d. non responders switching to 100 mg q.d. at week 12, week 8) was 5.96%. The “[HDL] Median percentage CFB - 24 weeks results” value (50 mg q.d. non responders switching to 100 mg q.d. at week 12, week 12) was 7.95%, the “[HDL] Median percentage CFB - 24 weeks results” value (50 mg q.d. non responders switching to 100 mg q.d. at week 12, week 16) was 14.34% and the “[HDL] Median percentage CFB - 24 weeks results” value (50 mg q.d. non responders switching to 100 mg q.d. at week 12, week 20) was 16.22%. The “[HDL] Median percentage CFB - 24 weeks results” value (50 mg q.d. non responders switching to 100 mg q.d. at week 12, week 24) was 19.84%, the “[HDL] Mean CFB - 24 weeks results” value [12] was 0.02 mmol/L and the “[HDL] Median CFB - 24 weeks results” value [12] was 0.04 mmol/L. For the same compound, the “[HDL] Mean CFB - 24 weeks results” value [13] was 0.05 mmol/L, the “[HDL] Median CFB - 24 weeks results” value [13] was 0.00 mmol/L and the “[HDL] Mean CFB - 24 weeks results” value [14] was 0.09 mmol/L. For the same compound, the “[HDL] Median CFB - 24 weeks results” value [14] was 0.10 mmol/L, the “[HDL] Mean CFB - 24 weeks results” value [15] was 0.13 mmol/L and the “[HDL] Median CFB - 24 weeks results” value [15] was 0.14 mmol/L. For the same compound, the “[HDL] Mean CFB - 24 weeks results” value [16] was 0.06 mmol/L, the “[HDL] Median CFB - 24 weeks results” value [16] was 0.05 mmol/L and the “[HDL] Mean CFB - 24 weeks results” value [17] was 0.08 mmol/L. For the same compound, the “[HDL] Median CFB - 24 weeks results” value [17] was 0.03 mmol/L, the “[HDL] Mean CFB - 24 weeks results” value [18] was 0.11 mmol/L and the “[HDL] Median CFB - 24 weeks results” value [18] was 0.08 mmol/L. For the same compound, the “[HDL] Mean CFB - 24 weeks results” value [19] was 0.17 mmol/L, the “[HDL] Median CFB - 24 weeks results” value [19] was 0.10 mmol/L and the “[HDL] Mean percentage CFB - 24 weeks results” value (50 mg q.d. responders, week 1) was 1.48%. For the same compound, the “[HDL] Median percentage CFB - 24 weeks results” value (50 mg q.d. responders, week 1) was 2.78%, the “[HDL] Mean percentage CFB - 24 weeks results” value (50 mg q.d. responders, week 2) was 4.14% and the “[HDL] Mean percentage CFB - 24 weeks results” value (50 mg q.d. responders, week 4) was 7.26%. For the same compound, the “[HDL] Median percentage CFB - 24 weeks results” value (50 mg q.d. responders, week 4) was 8.30%, the “[HDL] Mean percentage CFB - 24 weeks results” value (50 mg q.d. responders, week 8) was 9.33% and the “[HDL] Median percentage CFB - 24 weeks results” value (50 mg q.d. responders, week 8) was 8.81%. For the same compound, the “[HDL] Mean percentage CFB - 24 weeks results” value (50 mg q.d. responders, week 12) was 4.45%, the “[HDL] Median percentage CFB - 24 weeks results” value (50 mg q.d. responders, week 12) was 4.00% and the “[HDL] Mean percentage CFB - 24 weeks results” value (50 mg q.d. responders, week 16) was 6.26%. The “[HDL] Median percentage CFB - 24 weeks results” value (50 mg q.d. responders, week 16) was 2.82%, the “[HDL] Mean percentage CFB - 24 weeks results” value (50 mg q.d. responders, week 20) was 7.61% and the “[HDL] Median percentage CFB - 24 weeks results” value (50 mg q.d. responders, week 20) was 5.63%. For the same compound, the “[HDL] Mean percentage CFB - 24 weeks results” value (50 mg q.d. responders, week 24) was 11.90%, the “[HDL] Mean percentage CFB - 12 weeks results” value (week 1) was 2.27% and the “[HDL] Median percentage CFB - 12 weeks results” value (week 1) was 3.23%. For the same compound, the “[HDL] Mean percentage CFB - 12 weeks results” value (week 2) was 4.26%, the “[HDL] Median percentage CFB - 12 weeks results” value (week 2) was 0.00% and the “[HDL] Mean percentage CFB - 12 weeks results” value (week 4) was 7.96%. The “[HDL] Median percentage CFB - 12 weeks results” value (week 4) was 8.70%, the “[HDL] Mean percentage CFB - 12 weeks results” value (week 8) was 8.60% and the “[HDL] Median percentage CFB - 12 weeks results” value (week 8) was 7.00%. For the same compound, the “[HDL] Mean percentage CFB - 12 weeks results” value (week 12) was 5.77%, the “[HDL] Median percentage CFB - 12 weeks results” value (week 12) was 4.67% and the “[HDL] Mean CFB” value (100 mg q.d. (N = 70), week 1) was 0.085 mmol/L. The “[HDL] Mean CFB - 24 weeks results” value (100 mg q.d. (N = 70), week 1) was 0.09 mmol/L, the “[HDL] Median CFB” value (100 mg q.d. (N = 70), week 1) was 0.050 mmol/L and the “[HDL] Median CFB - 24 weeks results” value (100 mg q.d. (N = 70), week 1) was 0.05 mmol/L. For the same compound, the “[HDL] Mean CFB” value (100 mg q.d. (N = 70), week 2) was 0.131 mmol/L, the “[HDL] Mean CFB - 24 weeks results” value (100 mg q.d. (N = 70), week 2) was 0.13 mmol/L and the “[HDL] Median CFB” value (100 mg q.d. (N = 70), week 2) was 0.100 mmol/L. The “[HDL] Median CFB - 24 weeks results” value (100 mg q.d. (N = 70), week 2) was 0.10 mmol/L, the “[HDL] Mean CFB” value (100 mg q.d. (N = 70), week 4) was 0.194 mmol/L and the “[HDL] Mean CFB - 24 weeks results” value (100 mg q.d. (N = 70), week 4) was 0.19 mmol/L. The “[HDL] Median CFB” value (100 mg q.d. (N = 70), week 4) was 0.175 mmol/L, the “[HDL] Median CFB - 24 weeks results” value (100 mg q.d. (N = 70), week 4) was 0.18 mmol/L and the “[HDL] Mean CFB” value (100 mg q.d. (N = 70), week 8) was 0.171 mmol/L.
